According to patent US12539292B2, “BRM targeting compounds and associated methods of use” (Arvinas Operations, Inc., priority 2018, dated 2026):

What follows are compounds tested against T1, BRM (Homo sapiens, UniProt P51531) (assay: In-cell Western screen of BRM degradation in SW1573 cells (Dmax and DC50)). Conditions: BRM degradation; read-out: BRM DC50.
T1 construct: In-Cell Western Screen of BRM Degradation in SW1573 Cells; endogenous in cells; host or cells: SW1573
Format: cell-based
Outline: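 SW1573 cells were treated with compound overnight (18-20 h; final DMSO 0.1%), then fixed in 4% PFA, permeabilized with Triton X-100 and blocked. BRM was detected by in-cell Western using 800 nm anti-rabbit and 680 nm anti-mouse secondaries, and Dmax and DC50 were derived from the LI-COR Odyssey signal.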

T1 sequence (P51531 whole entry): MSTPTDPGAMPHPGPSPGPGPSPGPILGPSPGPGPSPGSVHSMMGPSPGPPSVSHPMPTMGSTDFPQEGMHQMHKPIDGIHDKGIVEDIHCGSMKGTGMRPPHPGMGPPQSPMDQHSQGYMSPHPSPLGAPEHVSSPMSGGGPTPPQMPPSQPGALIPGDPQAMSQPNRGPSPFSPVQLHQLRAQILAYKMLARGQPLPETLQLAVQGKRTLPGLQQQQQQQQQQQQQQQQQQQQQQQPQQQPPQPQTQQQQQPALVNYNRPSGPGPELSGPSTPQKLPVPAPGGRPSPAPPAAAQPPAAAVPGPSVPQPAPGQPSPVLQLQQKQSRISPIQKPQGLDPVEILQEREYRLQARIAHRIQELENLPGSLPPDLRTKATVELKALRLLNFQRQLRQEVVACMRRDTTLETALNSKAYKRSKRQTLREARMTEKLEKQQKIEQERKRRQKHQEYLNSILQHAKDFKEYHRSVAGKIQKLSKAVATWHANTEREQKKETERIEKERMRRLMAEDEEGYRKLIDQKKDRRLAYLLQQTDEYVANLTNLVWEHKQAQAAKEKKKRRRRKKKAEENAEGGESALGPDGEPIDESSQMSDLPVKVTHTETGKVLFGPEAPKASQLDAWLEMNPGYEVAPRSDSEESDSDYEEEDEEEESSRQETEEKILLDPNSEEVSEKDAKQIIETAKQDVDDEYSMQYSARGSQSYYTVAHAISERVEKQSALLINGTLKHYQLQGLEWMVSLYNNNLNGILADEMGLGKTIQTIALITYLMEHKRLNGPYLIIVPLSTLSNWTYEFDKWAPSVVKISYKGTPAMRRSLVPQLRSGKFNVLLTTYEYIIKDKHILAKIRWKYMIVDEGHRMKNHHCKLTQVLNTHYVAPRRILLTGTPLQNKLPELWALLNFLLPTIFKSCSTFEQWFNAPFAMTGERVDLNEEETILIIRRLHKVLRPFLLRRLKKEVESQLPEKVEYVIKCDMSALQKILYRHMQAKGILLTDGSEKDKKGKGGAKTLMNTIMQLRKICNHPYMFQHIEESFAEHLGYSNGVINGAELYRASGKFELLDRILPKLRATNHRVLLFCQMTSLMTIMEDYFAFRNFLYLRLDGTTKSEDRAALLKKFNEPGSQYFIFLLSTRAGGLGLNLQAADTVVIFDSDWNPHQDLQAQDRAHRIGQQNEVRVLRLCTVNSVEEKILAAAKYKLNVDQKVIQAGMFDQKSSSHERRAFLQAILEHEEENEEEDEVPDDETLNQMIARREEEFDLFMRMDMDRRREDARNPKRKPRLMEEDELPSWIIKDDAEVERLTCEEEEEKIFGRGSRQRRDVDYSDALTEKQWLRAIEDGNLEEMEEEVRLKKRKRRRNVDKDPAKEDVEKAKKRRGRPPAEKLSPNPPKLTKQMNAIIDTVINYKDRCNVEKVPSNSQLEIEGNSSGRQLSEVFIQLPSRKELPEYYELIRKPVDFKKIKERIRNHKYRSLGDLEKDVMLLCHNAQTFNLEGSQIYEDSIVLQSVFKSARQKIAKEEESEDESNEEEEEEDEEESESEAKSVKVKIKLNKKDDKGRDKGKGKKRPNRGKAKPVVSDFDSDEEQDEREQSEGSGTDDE

DC50	SMILES
> 30 nM	Cc1cc([C@@H](C(=O)N2C[C@H](O)C[C@H]2C(=O)N[C@H](COCCOCCNc2ccc(-c3ccccc3O)nn2)c2ccc(-c3scnc3C)cc2)C(C)C)on1 [compound 523, (2S,4R)-4-hydroxy-N-((S)-2-(2-(2-((6-(2-hydroxyphenyl)pyridazin-3-yl)amino)ethoxy)ethoxy)-1-(4-(4-methylthiazol-5-yl)phenyl)ethyl)-1-((S)-3-methyl-2-(3-methylisoxazol-5-yl)butanoyl)pyrrolidine-2-carboxamide]
> 30 nM	Cc1cc([C@H](C(=O)N2C[C@H](O)C[C@H]2C(=O)N[C@H](COCCOCCNc2ccc(-c3ccccc3O)nn2)c2ccc(-c3scnc3C)cc2)C(C)C)on1 [compound 524, (2S,4R)-4-hydroxy-N-((S)-2-(2-(2-((6-(2-hydroxyphenyl)pyridazin-3-yl)amino)ethoxy)ethoxy)-1-(4-(4-methylthiazol-5-yl)phenyl)ethyl)-1-((R)-3-methyl-2-(3-methylisoxazol-5-yl)butanoyl)pyrrolidine-2-carboxamide]
> 30 nM	Cc1cc([C@@H](C(=O)N2C[C@H](O)C[C@H]2C(=O)N[C@@H](COCCOCCNc2ccc(-c3ccccc3O)nn2)c2ccc(-c3scnc3C)cc2)C(C)C)on1 [compound 525, (2S,4R)-4-hydroxy-N-((R)-2-(2-(2-((6-(2-hydroxyphenyl)pyridazin-3-yl)amino)ethoxy)ethoxy)-1-(4-(4-methylthiazol-5-yl)phenyl)ethyl)-1-((S)-3-methyl-2-(3-methylisoxazol-5-yl)butanoyl)pyrrolidine-2-carboxamide]
> 30 nM	Cc1cc([C@H](C(=O)N2C[C@H](O)C[C@H]2C(=O)N[C@@H](COCCOCCNc2ccc(-c3ccccc3O)nn2)c2ccc(-c3scnc3C)cc2)C(C)C)on1 [compound 526, (2S,4R)-4-hydroxy-N-((R)-2-(2-(2-((6-(2-hydroxyphenyl)pyridazin-3-yl)amino)ethoxy)ethoxy)-1-(4-(4-methylthiazol-5-yl)phenyl)ethyl)-1-((R)-3-methyl-2-(3-methylisoxazol-5-yl)butanoyl)pyrrolidine-2-carboxamide]
> 30 nM	Cc1cc([C@@H](C(=O)N2C[C@H](O)C[C@H]2C(=O)N[C@H](COCCCCCc2cc(-c3ccccc3O)nnc2N)c2ccc(-c3scnc3C)cc2)C(C)C)on1 [compound 527, (2S,4R)-N-((S)-2-((5-(3-amino-6-(2-hydroxyphenyl)pyridazin-4-yl)pentyl)oxy)-1-(4-(4-methylthiazol-5-yl)phenyl)ethyl)-4-hydroxy-1-((S)-3-methyl-2-(3-methylisoxazol-5-yl)butanoyl)pyrrolidine-2-carboxamide]
> 30 nM	Cc1cc([C@H](C(=O)N2C[C@H](O)C[C@H]2C(=O)N[C@H](COCCCCCc2cc(-c3ccccc3O)nnc2N)c2ccc(-c3scnc3C)cc2)C(C)C)on1 [compound 528, (2S,4R)-N-((S)-2-((5-(3-amino-6-(2-hydroxyphenyl)pyridazin-4-yl)pentyl)oxy)-1-(4-(4-methylthiazol-5-yl)phenyl)ethyl)-4-hydroxy-1-((R)-3-methyl-2-(3-methylisoxazol-5-yl)butanoyl)pyrrolidine-2-carboxamide]
> 30 nM	Cc1cc([C@@H](C(=O)N2C[C@H](O)C[C@H]2C(=O)N[C@@H](COCCCCCc2cc(-c3ccccc3O)nnc2N)c2ccc(-c3scnc3C)cc2)C(C)C)on1 [compound 529, (2S,4R)-N-((R)-2-((5-(3-amino-6-(2-hydroxyphenyl)pyridazin-4-yl)pentyl)oxy)-1-(4-(4-methylthiazol-5-yl)phenyl)ethyl)-4-hydroxy-1-((S)-3-methyl-2-(3-methylisoxazol-5-yl)butanoyl)pyrrolidine-2-carboxamide]
> 30 nM	Cc1cc([C@H](C(=O)N2C[C@H](O)C[C@H]2C(=O)N[C@@H](COCCCCCc2cc(-c3ccccc3O)nnc2N)c2ccc(-c3scnc3C)cc2)C(C)C)on1 [compound 530, (2S,4R)-N-((R)-2-((5-(3-amino-6-(2-hydroxyphenyl)pyridazin-4-yl)pentyl)oxy)-1-(4-(4-methylthiazol-5-yl)phenyl)ethyl)-4-hydroxy-1-((R)-3-methyl-2-(3-methylisoxazol-5-yl)butanoyl)pyrrolidine-2-carboxamide]

SMILES	DC50
Cc1ncsc1-c1ccc([C@H](C)NC(=O)[C@@H]2C[C@@H](O)CN2C(=O)[C@H](c2cc(N3CCN(CC#Cc4ncc(O[C@H]5C[C@H](Oc6cc(N7C8CCC7CN(c7cc(-c9ccccc9O)nnc7N)C8)ccn6)C5)cn4)CC3)no2)C(C)C)cc1 [compound 521, (2S,4R)-1-((2S)-2-(3-(4-(3-(5-((1r,3r)-3-((4-(3-(3-amino-6-(2-hydroxyphenyl)pyridazin-4-yl)-3,8-diazabicyclo[3.2.1]octan-8-yl)pyridin-2-yl)oxy)cyclobutoxy)pyrimidin-2-yl)prop-2-yn-1-yl)piperazin-1-yl)isoxazol-5-yl)-3-methylbutanoyl)-4-hydroxy-N-((S)-1-(4-(4-methylthiazol-5-yl)phenyl)ethyl)pyrrolidine-2-carboxamide]	> 30 nM
Cc1ncsc1-c1ccc([C@H](C)NC(=O)[C@@H]2C[C@@H](O)CN2C(=O)[C@@H](c2cc(N3CCN(CC#Cc4ncc(O[C@H]5C[C@H](Oc6cc(N7C8CCC7CN(c7cc(-c9ccccc9O)nnc7N)C8)ccn6)C5)cn4)CC3)no2)C(C)C)cc1 [compound 522, (2S,4R)-1-((2R)-2-(3-(4-(3-(5-((1r,3r)-3-((4-(3-(3-amino-6-(2-hydroxyphenyl)pyridazin-4-yl)-3,8-diazabicyclo[3.2.1]octan-8-yl)pyridin-2-yl)oxy)cyclobutoxy)pyrimidin-2-yl)prop-2-yn-1-yl)piperazin-1-yl)isoxazol-5-yl)-3-methylbutanoyl)-4-hydroxy-N-((S)-1-(4-(4-methylthiazol-5-yl)phenyl)ethyl)pyrrolidine-2-carboxamide]	< 2.5 nM
Cc1ncsc1-c1ccc([C@H](CCC#N)NC(=O)[C@@H]2C[C@@H](O)CN2C(=O)[C@H](c2cc(OCCN3CCC(O[C@H]4C[C@H](Oc5cc(N6C7CCC6CN(c6cc(-c8ccccc8O)nnc6N)C7)ccn5)C4)CC3)no2)C(C)C)cc1 [compound 532, (2S,4R)-1-((2S)-2-(3-(2-(4-((1r,3S)-3-((4-(3-(3-amino-6-(2-hydroxyphenyl)pyridazin-4-yl)-3,8-diazabicyclo[3.2.1]octan-8-yl)pyridin-2-yl)oxy)cyclobutoxy)piperidin-1-yl)ethoxy)isoxazol-5-yl)-3-methylbutanoyl)-N-((S)-3-cyano-1-(4-(4-methylthiazol-5-yl)phenyl)propyl)-4-hydroxypyrrolidine-2-carboxamide]	> 30 nM
Cc1ncsc1-c1ccc([C@H](CCC#N)NC(=O)[C@@H]2C[C@@H](O)CN2C(=O)[C@@H](c2cc(OCCN3CCC(O[C@H]4C[C@H](Oc5cc(N6C7CCC6CN(c6cc(-c8ccccc8O)nnc6N)C7)ccn5)C4)CC3)no2)C(C)C)cc1 [compound 533, (2S,4R)-1-((2R)-2-(3-(2-(4-((1r,3R)-3-((4-(3-(3-amino-6-(2-hydroxyphenyl)pyridazin-4-yl)-3,8-diazabicyclo[3.2.1]octan-8-yl)pyridin-2-yl)oxy)cyclobutoxy)piperidin-1-yl)ethoxy)isoxazol-5-yl)-3-methylbutanoyl)-N-((S)-3-cyano-1-(4-(4-methylthiazol-5-yl)phenyl)propyl)-4-hydroxypyrrolidine-2-carboxamide]	< 2.5 nM

Same assay, conditions: SW1573; % degraded; when tested at the top concentration of between 0.3 and 10 μM; read-out: BRM Dmax (%)

SMILES	Dmax
Cc1ncsc1-c1ccc([C@H](C)NC(=O)[C@@H]2C[C@@H](O)CN2C(=O)[C@@H](c2cc(N3CCN(CC#Cc4ncc(O[C@H]5C[C@H](Oc6cc(N7C8CCC7CN(c7cc(-c9ccccc9O)nnc7N)C8)ccn6)C5)cn4)CC3)no2)C(C)C)cc1 [compound 522, (2S,4R)-1-((2R)-2-(3-(4-(3-(5-((1r,3r)-3-((4-(3-(3-amino-6-(2-hydroxyphenyl)pyridazin-4-yl)-3,8-diazabicyclo[3.2.1]octan-8-yl)pyridin-2-yl)oxy)cyclobutoxy)pyrimidin-2-yl)prop-2-yn-1-yl)piperazin-1-yl)isoxazol-5-yl)-3-methylbutanoyl)-4-hydroxy-N-((S)-1-(4-(4-methylthiazol-5-yl)phenyl)ethyl)pyrrolidine-2-carboxamide]	> 75%
Cc1ncsc1-c1ccc([C@H](CCC#N)NC(=O)[C@@H]2C[C@@H](O)CN2C(=O)[C@@H](c2cc(OCCN3CCC(O[C@H]4C[C@H](Oc5cc(N6C7CCC6CN(c6cc(-c8ccccc8O)nnc6N)C7)ccn5)C4)CC3)no2)C(C)C)cc1 [compound 533, (2S,4R)-1-((2R)-2-(3-(2-(4-((1r,3R)-3-((4-(3-(3-amino-6-(2-hydroxyphenyl)pyridazin-4-yl)-3,8-diazabicyclo[3.2.1]octan-8-yl)pyridin-2-yl)oxy)cyclobutoxy)piperidin-1-yl)ethoxy)isoxazol-5-yl)-3-methylbutanoyl)-N-((S)-3-cyano-1-(4-(4-methylthiazol-5-yl)phenyl)propyl)-4-hydroxypyrrolidine-2-carboxamide]	> 75%
